Measured values published in US6855843B2, “Inhibitors of α4 mediated cell adhesion” (Tanabe Seiyaku Co., Ltd., priority 1998, dated 2005).
Counter-ions that a name gives are not always drawn.

What was measured:
[1] = target: T1, α4β7 (adhesion of RPMI cells to CS-1) (Homo sapiens, UniProt P13612+P26010); experiment: RPMI-CS-1 cell adhesion assay; type: cell-based; details: adhesion of RPMI B-cell line (expresses α4β7) to CS-1 peptide coated microwells; read-out: RPMI-CS-1 IC50 value range
T1 construct: endogenous in cells
T1 sequence (P13612 34-1032): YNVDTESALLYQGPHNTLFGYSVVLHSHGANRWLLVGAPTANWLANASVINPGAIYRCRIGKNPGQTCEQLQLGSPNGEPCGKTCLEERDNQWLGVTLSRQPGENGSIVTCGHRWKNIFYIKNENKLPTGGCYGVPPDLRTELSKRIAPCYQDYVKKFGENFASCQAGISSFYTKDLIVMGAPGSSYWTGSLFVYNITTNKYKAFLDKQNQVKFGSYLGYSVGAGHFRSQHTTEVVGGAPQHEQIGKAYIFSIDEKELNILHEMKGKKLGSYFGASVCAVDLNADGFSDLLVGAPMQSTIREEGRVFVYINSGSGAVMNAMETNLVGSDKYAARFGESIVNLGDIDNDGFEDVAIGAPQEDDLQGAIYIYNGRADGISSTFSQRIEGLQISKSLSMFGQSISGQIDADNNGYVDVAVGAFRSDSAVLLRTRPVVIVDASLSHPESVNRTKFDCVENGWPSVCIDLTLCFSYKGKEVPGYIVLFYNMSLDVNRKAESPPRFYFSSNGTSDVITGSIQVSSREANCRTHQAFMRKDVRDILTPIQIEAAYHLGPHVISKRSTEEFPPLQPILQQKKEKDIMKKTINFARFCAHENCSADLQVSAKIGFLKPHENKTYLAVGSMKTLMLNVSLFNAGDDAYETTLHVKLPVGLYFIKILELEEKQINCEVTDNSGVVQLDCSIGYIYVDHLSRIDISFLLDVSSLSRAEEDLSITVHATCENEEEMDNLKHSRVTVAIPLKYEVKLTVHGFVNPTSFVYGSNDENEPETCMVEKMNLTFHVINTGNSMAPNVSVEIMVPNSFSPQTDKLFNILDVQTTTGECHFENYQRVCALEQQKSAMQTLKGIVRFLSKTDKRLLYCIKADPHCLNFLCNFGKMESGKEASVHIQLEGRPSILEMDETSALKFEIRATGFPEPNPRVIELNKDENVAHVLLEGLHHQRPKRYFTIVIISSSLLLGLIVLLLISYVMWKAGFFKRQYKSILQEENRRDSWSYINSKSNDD
T1 sequence (P26010 20-798): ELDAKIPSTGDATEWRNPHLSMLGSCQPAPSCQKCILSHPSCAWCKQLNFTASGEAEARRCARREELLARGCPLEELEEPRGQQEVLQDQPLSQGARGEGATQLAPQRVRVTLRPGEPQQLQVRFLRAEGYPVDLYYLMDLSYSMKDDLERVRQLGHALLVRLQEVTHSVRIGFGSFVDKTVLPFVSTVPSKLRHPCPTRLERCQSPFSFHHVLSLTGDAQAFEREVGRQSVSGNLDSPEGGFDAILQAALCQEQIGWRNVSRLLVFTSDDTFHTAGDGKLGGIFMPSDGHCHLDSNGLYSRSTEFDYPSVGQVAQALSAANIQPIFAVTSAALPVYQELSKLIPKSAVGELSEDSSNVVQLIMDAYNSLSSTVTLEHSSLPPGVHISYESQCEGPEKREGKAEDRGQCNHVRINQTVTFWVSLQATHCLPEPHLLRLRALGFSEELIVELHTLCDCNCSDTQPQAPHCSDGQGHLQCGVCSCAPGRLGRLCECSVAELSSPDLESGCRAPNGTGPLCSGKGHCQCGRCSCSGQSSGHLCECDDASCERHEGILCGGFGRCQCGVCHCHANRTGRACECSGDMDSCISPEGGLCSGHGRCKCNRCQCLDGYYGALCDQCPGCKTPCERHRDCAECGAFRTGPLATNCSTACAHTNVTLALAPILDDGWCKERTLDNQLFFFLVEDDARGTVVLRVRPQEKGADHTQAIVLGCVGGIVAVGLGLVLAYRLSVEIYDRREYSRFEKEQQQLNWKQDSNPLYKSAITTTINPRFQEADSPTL

Compound | melting point | IC50 [1]
COc1cc(C(F)(F)F)cc(OC)c1-c1ccc(C[C@H](NC(=O)c2c(Cl)cccc2Cl)C(=O)O)cc1 [Example 321, N-(2,6-Dichlorobenzoyl)-4-[2,6-dimethoxy-4-(trifluoromethyl)phenyl]-L-phenylalanine] | 231 to 232 °C | < 300 nM
CCOC(=O)Nc1cc(Cl)c(C(=O)N[C@@H](Cc2ccc(-c3c(OC)cccc3OC)cc2)C(=O)O)c(Cl)c1 [Example 200] | 185 to 187 °C | < 300 nM
CNC(=O)c1cc(OC)c(-c2ccc(C[C@H](NC(=O)c3c(Cl)cccc3Cl)C(=O)O)cc2)c(OC)c1 [Example 165, N-(2,6-Dichlorobenzoyl)-4-(4-methylcarbamoyl-2,6-dimethoxyphenyl)-L-phenylalanine] | 251 to 252 °C | < 300 nM
O=C(N[C@@H](Cc1ccc(-c2cccc3c2OCC3)cc1)C(=O)O)c1c(Cl)cccc1Cl [Example 327] | 215 to 216 °C | < 300 nM
COc1cc(CN2CCSCC2)cc(OC)c1-c1ccc(C[C@H](NC(=O)c2c(Cl)cccc2Cl)C(=O)O)cc1 [Example 253, N-(2,6-dichlorobenzoyl)-4-[2,6-dimethoxy-4-(thiomorpholinomethyl)phenyl]-L-phenylalanine] | 86 to 89 °C | –
COc1cccc(O)c1-c1ccc(C[C@H](NC(=O)c2c(Cl)cccc2Cl)C(=O)O)cc1 [Example 359, N-(2,6-Dichlorobenzoyl)-4-(6-methoxy-2-hydroxyphenyl)-L-phenylalanine] | 224.4 °C | –
CNc1ccc(C(=O)N[C@@H](Cc2ccc(-c3ccccc3OC)cc2)C(=O)O)c(Cl)c1 | 82.8 °C | –
COc1ccccc1-c1ccc(C[C@H](NC(=O)c2ccc(N(C)S(C)(=O)=O)cc2Cl)C(=O)O)cc1 | 79.3 °C | –
COc1cccc(OC)c1-c1ccc(C[C@H](NC(=O)c2c(Cl)cc(-c3ccn[nH]3)cc2Cl)C(=O)O)cc1 (as salt: TFA) [Example 304, N-[4-(5-Pyrazolyl)-2,6-dichlorobenzoyl)-4-(2,6-dimethoxyphenyl)-L-phenylalanine] | 156 °C | –
COc1ccccc1-c1ccc(C[C@H](NC(=O)c2ccc(NS(=O)(=O)c3ccc(C(F)(F)F)cc3)cc2Cl)C(=O)O)cc1 [Example 187, N-[2-Chloro-4-[[(4-trifluoromethylphenyl)sulfonyl]amino]benzoyl]-4-(2-methoxyphenyl)-L-phenylalanine] | – | < 300 nM
COc1ccccc1-c1ccc(C[C@H](NC(=O)c2ccc(Cl)nc2)C(=O)O)cc1 [Example 93] | – | > 5000 nM
COC(=O)[C@H](Cc1ccc(-c2ccccc2OC)cc1)NC(=O)c1c(Cl)cccc1Cl [Example 1A, N-(2,6-Dichlorobenzoyl)-4-(2-methoxyphenyl)-L-phenylalanine methyl ester] | – | 300 to 1000 nM
N-(2,6-Dichlorobenzoyl)-4-(2,6-dicyanophenyl)-L-phenylalanine [Example 151] | – | < 300 nM
COc1cccc(OC)c1-c1ccc(C[C@H](NC(=O)c2c(Cl)cc(-c3ccccn3)cc2Cl)C(=O)O)cc1 [Example 312] | – | < 300 nM
COc1c(F)cc(F)c(OC)c1-c1ccc(C[C@H](NC(=O)c2c(Cl)cccc2Cl)C(=O)O)cc1 [Example 153B, N-(2,6-dichlorobenzoyl)-4-(2,6-dimethoxy-3,5-difluorophenyl)-L-phenylalanine] | – | < 300 nM
CCOc1cccc(OCC)c1-c1ccc(C[C@H](NC(=O)c2c(Cl)cccc2Cl)C(=O)O)cc1 [Example 13, N-(2,6-Dichlorobenzoyl)-4-(2,6-diethoxyphenyl)-L-phenylalanine] | – | < 300 nM
COc1ccccc1-c1ccc(C[C@H](NC(=O)c2ccc([N+](=O)[O-])cc2)C(=O)O)cc1 [Example 101] | – | > 5000 nM

Now from value to compound:

melting point | IC50 [1] | Compound
93 to 94 °C | 300 to 1000 nM | O=C(N[C@@H](Cc1ccc(-c2c(OCC(F)(F)F)cccc2OCC(F)(F)F)cc1)C(=O)O)c1c(Cl)cccc1Cl [Example 230]
117.6 °C | < 300 nM | CCCCC(=O)c1cc(C[C@H](NC(=O)c2c(Cl)cccc2Cl)C(=O)O)ccc1-c1ccccc1OC [Example 338]
146.5 °C | – | CCOC(=O)[C@H](Cc1ccc(-c2c(OC)cc(CN(C)C)cc2OC)cc1)NC(=O)c1c(Cl)cccc1Cl (as salt: hydrochloride) [Example 259, N-(2,6-Dichlorobenzoyl)-4-[2,6-dimethoxy-4-[(N,N-dimethylamino)methyl]phenyl]-L-phenylalanine ethyl ester hydrochloride]
252 to 253 °C | < 300 nM | COc1cccc(OC)c1-c1ccc(C[C@H](NC(=O)c2c(Cl)cc(O)cc2Cl)C(=O)O)cc1 [Example 208]
234.8 °C | < 300 nM | COc1cccc(OC)c1-c1ccc(C[C@H](NC(=O)c2c(Cl)ccc(Br)c2Cl)C(=O)O)cc1 [Example 331, N-(2,6-Dichloro-3-bromobenzoyl)-4-(2,6-dimethoxyphenyl)-L-phenylalanine]
87 to 89 °C | < 300 nM | COc1ccccc1-c1ccc(C[C@H](NC(=O)c2c(Cl)cccc2Cl)C(=O)O)cc1C(C)=O [Example 71, 3-Acetyl-N-(2,6-dichlorobenzoyl)-4-(2-methoxyphenyl)-L-phenylalanine]
106.8 °C | 300 to 1000 nM | CON=C(C)c1cc(C[C@H](NC(=O)c2c(Cl)cccc2Cl)C(=O)O)ccc1-c1ccccc1OC [Example 352, N-(2,6-Dichlorobenzoyl)-3-[1-(methoxyimino)ethyl]-4-(2-methoxyphenyl)-L-phenylalanine]
145 to 146 °C | 300 to 1000 nM | COc1ccccc1-c1ccc(C[C@H](NC(=O)c2ccc(NC(=S)Nc3ccccc3)cc2Cl)C(=O)O)cc1 [Example 197]
226 °C | – | CCOC(=O)[C@H](Cc1ccc(-c2c(OC)cc(CN3CCN(C)CC3)cc2OC)cc1)NC(=O)c1c(F)cccc1F (as salt: HCl) [Example 356]
177.5 °C | – | CCOC(=O)[C@H](Cc1ccc(-c2c(OC)cc(CN3CCOCC3)cc2OC)cc1)NC(=O)c1c(Cl)cccc1Cl.Cl
119 °C | – | Cc1noc(C)c1-c1ccc(C[C@H](NC(=O)c2c(Cl)cccc2Cl)C(=O)O)cc1 [Example 330, N-(2,6-Dichlorobenzoyl)-4-(3,5-dimethyl-4-isoxazolyl)-L-phenylalanine]
– | < 300 nM | CCCOc1ccc(C(=O)N[C@@H](Cc2ccc(-c3c(OC)cccc3OC)cc2)C(=O)O)c(Cl)c1 [Example 286]
– | 300 to 1000 nM | COc1ccccc1-c1ccc(C[C@H](NC(=O)c2ccc(N)cc2Cl)C(=O)O)cc1 [Example 63, N-(4-Amino-2-chlorobenzoyl)-4-(2-methoxyphenyl)-L-phenylalanine]
– | 300 to 1000 nM | O=C(N[C@@H](Cc1ccc(-c2ccccc2OCc2ccccn2)cc1)C(=O)O)c1c(Cl)cccc1Cl [Example 38]
– | < 300 nM | COc1cccc(OC)c1-c1ccc(C[C@H](NC(=O)c2c(Cl)cc(-c3ccn[nH]3)cc2Cl)C(=O)O)cc1 [Example 304, N-[4-(5-Pyrazolyl)-2,6-dichlorobenzoyl)-4-(2,6-dimethoxyphenyl)-L-phenylalanine]
– | < 300 nM | COc1ccc(Br)c(OC)c1-c1ccc(C[C@H](NC(=O)c2c(Cl)cccc2Cl)C(=O)O)cc1 [Example 322, N-(2,6-Dichlorobenzoyl)-4-(2,6-dimethoxy-3-bromophenyl)-L-phenylalanine]
